The source of these data is patent EP3436445B1, “HISTONE DEMETHYLASE INHIBITORS” (Celgene Quanticel Research, Inc., priority 2016, dated 2017).

Bounds are passed on as bounds.

The experiment addresses T1, FBXL11 (Homo sapiens, UniProt Q9Y2K7).
T1 construct: purchased BPS Bioscience 50102
T1 sequence (Q9Y2K7 1-1162): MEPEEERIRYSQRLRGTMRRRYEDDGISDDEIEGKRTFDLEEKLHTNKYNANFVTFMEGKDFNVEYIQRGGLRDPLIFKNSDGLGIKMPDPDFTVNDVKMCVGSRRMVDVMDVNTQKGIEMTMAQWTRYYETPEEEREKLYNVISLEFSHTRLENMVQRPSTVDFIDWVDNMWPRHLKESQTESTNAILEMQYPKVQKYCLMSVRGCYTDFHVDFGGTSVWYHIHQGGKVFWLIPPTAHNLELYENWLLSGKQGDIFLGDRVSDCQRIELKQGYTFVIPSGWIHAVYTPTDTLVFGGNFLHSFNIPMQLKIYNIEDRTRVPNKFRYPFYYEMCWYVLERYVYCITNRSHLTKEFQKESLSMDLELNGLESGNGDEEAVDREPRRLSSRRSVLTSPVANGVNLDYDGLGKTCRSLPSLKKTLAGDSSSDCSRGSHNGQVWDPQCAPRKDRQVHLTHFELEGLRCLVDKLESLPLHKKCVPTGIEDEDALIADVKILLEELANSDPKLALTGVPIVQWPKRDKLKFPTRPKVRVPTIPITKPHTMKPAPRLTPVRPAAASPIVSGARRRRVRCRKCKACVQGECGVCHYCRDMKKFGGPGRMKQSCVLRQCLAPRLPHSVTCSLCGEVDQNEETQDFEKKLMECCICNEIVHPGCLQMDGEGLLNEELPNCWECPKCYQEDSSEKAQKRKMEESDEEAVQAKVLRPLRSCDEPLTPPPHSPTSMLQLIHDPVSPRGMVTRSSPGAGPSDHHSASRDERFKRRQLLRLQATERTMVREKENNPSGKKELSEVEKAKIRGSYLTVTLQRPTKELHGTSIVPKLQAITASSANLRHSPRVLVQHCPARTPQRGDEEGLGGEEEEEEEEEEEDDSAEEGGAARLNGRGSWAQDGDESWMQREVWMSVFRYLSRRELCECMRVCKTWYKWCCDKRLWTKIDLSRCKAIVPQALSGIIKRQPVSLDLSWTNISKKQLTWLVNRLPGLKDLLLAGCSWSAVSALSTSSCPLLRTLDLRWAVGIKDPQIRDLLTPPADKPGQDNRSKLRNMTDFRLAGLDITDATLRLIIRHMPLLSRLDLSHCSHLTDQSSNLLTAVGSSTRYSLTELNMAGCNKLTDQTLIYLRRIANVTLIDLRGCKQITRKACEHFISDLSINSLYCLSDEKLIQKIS
The experiment in a line: FBXL11 in vitro enzyme inhibition assay (AlphaScreen). Format: biochemical. Conditions: Table 3; 0.15 nM FBXL11, H3K36me2-biotin labeled peptide. The text has this: This assay determines the ability of a test compound to inhibit FBXL11, FBXL10, and PHF8 demethylase activity. Baculovirus expressed FBXL11 (GenBank Accession #NM_012308, AA1-1162) was purchased from BPS Bioscience (Cat#50102). Baculovirus expressed FBXL10 (GenBank Accession #NM_032590, AA 1-650) was purchased from BPS Bioscience (Cat #50120). Baculovirus expressed PHF8 (GenBank Accession NP_055922.1) was purchased from Active Motif (Cat#31435).
The ability of test compounds to inhibit the activity of FBXL11 was determined in 384-well plate format under the following reaction conditions: 0.15 nM FBXL11, 30 nM H3K36me2-biotin labeled peptide (Anaspec cat # 64442), 0.2 µM alpha-ketoglutaric acid in assay buffer of 50 mM HEPES, pH7.3, 0.005% Brij35, 0.5 mM TCEP, 0.2 mg/ml BSA, 50 µM sodium L-ascorbate, 5 µM ammonium iron(II) sulfate. Reaction product is determined quantitatively by AlphaScreen detection after the addition of detection reagents anti-H3K36me1 antibody, AlphaScreen® Streptavidin-coated Donor beads, and AlphaScreen® Protein A Acceptor beads in 50 mM HEPES, pH7.3, 10 mM NaCl, 0.005% Brij35, 5 mM EDTA, 2 mg/ml BSA to final 10 µg/ml beads.
The assay reaction was initiated by the following: 3 µl of the mixture of 90 nM H3K36me2-biotin labeled peptide and 0.6 µM alpha-ketoglutaric acid with 3 µl of 11-point serial diluted inhibitor in 3% DMSO are added to each well of 384 well Proxiplate (Perkin Elmer), followed by the addition of 3 µl of 0.45 nM FBXL11 to initiate the reaction. The reaction mixture is incubated at room temperature for 1 hour, and terminated by the addition of 3 µl of appropriate dilution of anti H3K36me1 antibody in 50 mM HEPES, pH7.3, 10 mM NaCl, 0.005% Brij35, 5 mM EDTA, 2 mg/ml BSA. Plates will then incubated at room temperature for 40 minutes, followed by addition of 3 µl of 50 µg/ml AlphaScreen® Streptavidin-coated Donor beads and AlphaScreen® Protein A Acceptor beads in 50 mM HEPES, pH7.3, 10 mM NaCl, 0.005% Brij35, 5 mM EDTA, 2 mg/ml BSA. Plates will then be read by EnVision Multilabel Reader in AlphaScreen mode after minimum 2 hour incubation at room temperature. The AlphaScreen signal for each well is used to determine inhibition constant (IC50).
(In Alpha technology, singlet oxygen from a donor bead excites a nearby acceptor bead.)
In general, IC50 refers to the concentration that inhibits the measured activity by half. Consider `Clc1ccc(-n2cnc(-c3cc4[nH]nnc4cn3)c2)cc1` [Example 49, 1-(4-chlorophenyl)-4-{1H-[1,2,3]triazolo[4,5-c]pyridin-6-yl}-1H-imidazole], for which the concentration for half-maximal inhibition (IC50) is not above 100 nM.
As to `Clc1ccc(Cn2cnc(-c3cc4[nH]nnc4cn3)c2)cc1Cl` [Example 48, 1-[(3,4-dichlorophenyl)methyl]-4-{1H-[1,2,3]triazolo[4,5-c]pyridin-6-yl}-1H-imidazole], the IC50 is not above 100 nM.
`Clc1cccc(Cn2cnc(-c3cc4[nH]nnc4cn3)c2)c1` [Example 46, 1-[(3-chlorophenyl)methyl]-4-{1H-[1,2,3]triazolo[4,5-c]pyridin-6-yl}-1H-imidazole] showed an IC50 not above 100 nM.
Turning to `Clc1ccc(Cn2cnc(-c3cc4[nH]nnc4cn3)c2)cc1` [Example 47, 1-[(4-chlorophenyl)methyl]-4-{1H-[1,2,3]triazolo[4,5-c]pyridin-6-yl}-1H-imidazole], the IC50 is not above 100 nM.
In turn, `c1ccc(Cn2cnc(-c3cc4[nH]nnc4cn3)c2)cc1` [Example 44, 1-benzyl-4-{1H-[1,2,3]triazolo[4,5-c]pyridin-6-yl}-1H-imidazole] yielded an IC50 not above 100 nM.
`Clc1ccccc1-n1cnc(-c2cc3[nH]nnc3cn2)c1` [Example 50, 1-(2-chlorophenyl)-4-{1H-[1,2,3]triazolo[4,5-c]pyridin-6-yl}-1H-imidazole] displayed an IC50 not above 100 nM.
Compound `Clc1cccc(-n2cnc(-c3cc4[nH]nnc4cn3)c2)c1` [Example 51, 1-(3-chlorophenyl)-4-{1H-[1,2,3]triazolo[4,5-c]pyridin-6-yl}-1H-imidazole] returned an IC50 of 100 to 1000 nM.
The result for `Clc1ccccc1Cn1cnc(-c2cc3[nH]nnc3cn2)c1` [Example 45, 1-[(2-chlorophenyl)methyl]-4-{1H-[1,2,3]triazolo[4,5-c]pyridin-6-yl}-1H-imidazole] reads not above 100 nM.
